Entries after “also recorded” stand apart in the source; their conditions may differ.
Experiments:
[1] = system: ascites cells obtained during an operation of a patient with endometrial cancer (endometrioid adenocarcinoma); experiment: Live-cell fluorescence imaging of ascites cells, endometrial cancer patient, with later Papanicolaou staining (Example 2); type: cell-based, human
Experimental: Immediately after the start of laparotomy for endometrial cancer (endometrioid adenocarcinoma), the peritoneal cavity was washed with physiological saline in the same manner as in Example 1 to obtain a peritoneal washing, which was then added to a 50 mL centrifuge tube having 5 mL of the Hanks solution in advance. The resulting ascitic fluid suspension was centrifuged at […] for 2 minutes at room temperature, and the supernatant was removed by decantation. Subsequently, 30 mL of a commercially available solution of ammonium chloride for hemolysis was added, and allowed to stand for 2 minutes, and then centrifuged at 1500 G for 2 minutes at room temperature, and the supernatant was then removed by decantation. Some of the resulting pellet was set aside for cytodiagnosis tests at the hospital's pathology department, and the rest was further divided into 2 portions, each of which was dispersed into 40 mL of a KRB solution in 50 mL centrifuge tubes, and stored at room temperature an a dark place until application of fLG on the next day. […]
Observation and image acquisition were performed about 22 hours after obtaining ascites cells using the same instruments as in Example 1. […] Subsequently, a bright-field image and fluorescence images of the target cells were obtained using a high-power lens, and positional information on the stage was registered using a software dedicated for BZ-X700. […]

[2] = system: cells in peritoneal washing obtained during an operation of a patient with endometrial cancer (endometrial endometrioid adenocarcinoma); experiment: Live-cell fluorescence imaging by perfusion, cells in peritoneal washing, endometrial cancer patient (Example 5); type: cell-based, human; conditions: cell clusters a and b (apparent mesothelial cells and apparent macrophage cells); perfusion 100 μM 2-NBDLG and 20 μM 2TRLG; FIG. 11A/11B, 12D
Experimental: A peritoneal washing obtained immediately after the start of laparotomy for endometrial cancer (endometrial endometrioid adenocarcinoma) in the same manner as in Example 1 was added to a 50 mL centrifuge tube having 5 mL of the Hanks solution in advance. Fibrin, fat, and impurities were removed from the ascitic fluid suspension in the same manner as in Example 4. Subsequently, a half of it was dispensed into a 50 mL centrifuge tube, and centrifuged at 1500 G for 2 minutes at room temperature. The supernatant was processed in the same manner as in Example 4 to obtain 1 mL of an ascites-cell suspension. • (2) Adhesion of Ascites Cells on Glass Plate by Centrifugation, and Method of Maintaining Cell Viability
The ascites-cell suspension in an amount of 1 mL taken at (1) was transferred to a plastic chamber dedicateded for CF-12D as in Example 4. The ascites cells were allowed to attach on a glass plate by centrifugation at 1400 rpm for 1 minute at room temperature. The plate was then treated as in Example 4, and stored in a moisture chamber until being mounted on the perfusion stage. • (3) Attachment of Glass Plate on Perfusion Stage and Perfusion […]
It was performed as in Example 4. Only a green fluorescence image was taken before administration of the fluorescently labeled L-glucose derivative. […]

[3] = system: cultured cells; conditions: 2-TRLG and 2-NBDLG applied together to cultured cells; cited from earlier work

## O=C[C@@H](Nc1ccc([N+](=O)[O-])c2nonc12)[C@H](O)[C@@H](O)[C@@H](O)CO [2-NBDLG, 2-[N-(7-nitrobenz-2-oxa-1,3-diazole-4-yl)amino]-2-deoxy-L-glucose]
[1]; Cluster 1, FIG. 4A
  intracellular localisation of 2-NBDLG uptake: taken up into the cytoplasmic portion except for the nucleus
[1]; two cancer-cell clusters (left cluster and Cluster 1), 100 μM 2-NBDLG and 20 μM 2TRLG, fLG applied about 20 hours after sampling, FIG. 3B, 4D
  fluorescence from 2-NBDLG (green wavelength region): show fluorescence; also recorded: positive
[2]
  fluorescence from 2-NBDLG (green wavelength region), after vs before application: Neither the cell cluster a nor b shows fluorescence; also recorded: negative
[3]
  uptake into cells having damaged plasma membranes or showing nonspecific uptake such as phagocytosis: taken up into cells having damaged plasma membranes

Source: US20170315129A1, “CANCER CELL DETECTION METHOD USING LIVING BODY-DERIVED CELLS OF BIOLOGICAL ORIGIN” (Hirosaki University, priority 2014, published 2017)
